Experiments:
Type in all cases: cell-based
[1] = tested on: human non-small cell lung cancer cells (A549); assay: scratch assay, migration of A549 cells; details: A549, 10 μM, 48 hours; control group 75.31 ± 8.19
Procedure: (§1) In the scratch assay, the cell migration rate was negatively correlated with the inhibitory effect of the drug component on tumor cell migration ability. The cell migration inhibition experiment was described as follows: tumor cells were cultured in vitro, cells in logarithmic growth phase were collected and seeded evenly in a 24-well plate at a density of 1-2×10^5 cells/well; the cells were cultured in a cell incubator until a monolayer was formed; a scratch tool was used to make a “-” (straight) scratch on the monolayer of cells; the cells were washed 1-3 times with PBS, and a medium (with 2% fetal bovine serum) containing specific test components was added to the culture. Experimental grouping: PBS control group; polypeptide or derivative thereof treatment group (N1-N54), 10 μM. Three independent parallel wells were set up in each group, and the cells were cultured continuously in a cell incubator for 48 hours. […] At least 3 representative images for each well were taken. ImageJ software was used to count the migration distance of the cells, and the cell migration rate was calculated as: cell migration rate (%)=(width of original scratch−width of current scratch)/width of original scratch×100.
This example was a scratch assay to evaluate the inhibitory effect of the polypeptide or derivative thereof (N1-N54) on the migration ability of human non-small cell lung cancer (A549). The experimental method was as described in Example 2.

[2] = tested on: human breast cancer cells (MDA-MB-231); assay: scratch assay, migration of MDA-MB-231 cells; details: MDA-MB-231, 10 μM, 48 hours; control group 36.19 ± 5.15
Procedure: as §1
This example was a scratch assay to evaluate the inhibitory effect of the polypeptide or derivative thereof (N1-N54) on the migration ability of human breast cancer cells (MDA-MB-231). The experimental method was as described in Example 2.

[3] = tested on: human colon cancer cells (HCT-116); assay: scratch assay, migration of HCT-116 cells; details: HCT-116, 10 μM, 48 hours; control group 47.78 ± 6.07
Procedure: as §1
This example was a scratch assay to evaluate the inhibitory effect of the polypeptide or derivative thereof (N1-N54) on the migration ability of human colon cancer cells (HCT-116). The experimental method was as described in Example 2.

[4] = tested on: human pancreatic cancer cells (PANC-1); assay: transwell invasion assay, PANC-1 cells; details: PANC-1 transwell invasion, 10 μM, 24 hours; control group 727 ± 68
Excerpt: (§2) The Transwell chamber system was used in the transwell cell invasion experiment. The chamber has an upper layer and a lower layer, which are separated by an artificial semipermeable membrane in the middle. The upper surface of the semipermeable membrane is coated with a layer of artificial matrigel to simulate extracellular matrix. Cells that have invaded through the matrigel and semi-permeable membrane will attach to the lower surface of the semi-permeable membrane. The invasion ability is evaluated by counting the number of cells on the lower surface of the semi-permeable membrane. The number of cells that have invaded is negatively correlated with the inhibitory effect of the drug on the invasion ability of the tumor cells. Transwell invasion assay was performed as follows: tumor cells were cultured in vitro, cells in logarithmic growth phase were collected, and cell suspension was prepared with fresh serum-free medium at a density of 2-3×10^5 cells/mL. Cells were inoculated, 100 μL/well cell suspension (serum-free medium) in the upper chamber and 600 μL/well complete culture medium in the lower chamber. After incubated in 37° C., 5% CO2 incubator for 4-5 hours, serum-free medium (100 μL/well) was added to the control group, and serum-free medium containing polypeptide or derivative thereof (N1-N54) was added to the upper chamber of the treatment group (100 μL/well), the final concentration of the peptide or derivative thereof in the upper chamber was 10 μM. The cells were incubated continuously for 24 hours, and then fixed with methanol and stained with crystal violet. Images were taken under a microscope and the number of invaded cells was counted with ImageJ.
This example was the transwell cell invasion experiment to evaluate the inhibitory effect of the polypeptide or derivative thereof (N1-N54) on the invasion ability of human pancreatic cancer cells (PANC-1). The experimental method was as described in Example 4.

[5] = tested on: human breast cancer cells (MCF-7); assay: scratch assay, migration of MCF-7 cells; details: MCF-7, 10 μM, 48 hours; control group 30.97 ± 1.79
Procedure: as §1
This example was a scratch assay to evaluate the inhibitory effect of the polypeptide or derivative thereof (N1-N54) on the migration ability of human breast cancer cells (MCF-7). The experimental method was as described in Example 2.

[6] = tested on: human pancreatic cancer cells (PANC-1); assay: scratch assay, migration of PANC-1 cells; details: PANC-1, 10 μM, 48 hours; control group 66.65 ± 3.37
Procedure: as §1
This example was a scratch assay to evaluate the inhibitory effect of the polypeptide or derivative thereof (N1-N54) on the migration ability of human pancreatic cancer cells (PANC-1). The experimental method was as described in Example 2.

[7] = tested on: human pancreatic cancer cells (PANC-1); assay: transwell migration assay, PANC-1 cells; details: PANC-1 transwell migration, 10 μM, 24 hours; control group 360 ± 60
Procedure: as §2, with “migration” for “invasion”, “middle.” for “middle. The upper surface of the semipermeable membrane is coated with a layer of artificial matrigel to simulate extracellular matrix.”, “migrated” for “invaded”, “the” for “the matrigel and”
This example was a transwell cell migration experiment to evaluate the inhibitory effect of the polypeptide or derivative thereof (N1-N54) on the migration ability of human pancreatic cancer cells (PANC-1). The experimental method was as described in Example 3.

[8] = tested on: human liver cancer cells (HepG2); assay: scratch assay, migration of HepG2 cells; details: HepG2, 10 μM, 48 hours; control group 71.01 ± 6.63
Procedure: as §1
This example was a scratch assay to evaluate the inhibitory effect of the polypeptide or derivative thereof (N1-N54) on the migration ability of human liver cancer cells (HepG2). The experimental method was as described in Example 2.

Substance | Migration rate (%) (mean ± SD, P) [1] | Migration rate (%) (mean ± SD, P) [2] | Migration rate (%) (mean ± SD, P) [3] | Number of cells (mean ± SD, P), invaded cells [4] | Migration rate (%) (mean ± SD, P) [5] | Migration rate (%) (mean ± SD, P) [6] | Number of cells (mean ± SD, P), migrated cells [7] | Migration rate (%) (mean ± SD, P) [8]
N17: SEQ ID NO: 1 with addition of two amino acids to the carboxyl terminal (YRVRFLAKENVTQDAEDNCT) | 18.31 ± 9.26,** % | 12.04 ± 4.13,** % | 23.09 ± 2.41,*** % | 95 ± 6,**** | 11.47 ± 4.24,** % | 15.47 ± 5.29,*** % | 244 ± 14,* | 43.42 ± 3.16,** %
N18: SEQ ID NO: 1 with addition of one amino acid at the amino terminal and one at the carboxyl terminal (FYRVRFLAKENVTQDAEDNC) | 55.71 ± 4.05,* % | 18.64 ± 6.98,* % | 16.96 ± 4.87,** % | 118 ± 14,**** | 10.40 ± 2.72,** % | 13.26 ± 7.39,*** % | 232 ± 24,* | 48.73 ± 3.52,** %
N19: SEQ ID NO: 1 with deletion of positions 1-5 and 15-18 and addition of two amino acids at the carboxyl terminal (LAKENVTQDRC) | 53.74 ± 5.46,* % | 15.23 ± 3.54,* % | 9.80 ± 2.62,*** % | 213 ± 20,**** | 11.84 ± 3.95,** % | 19.76 ± 7.14,*** % | 238 ± 27,* | 12.10 ± 6.15,*** %
N20: SEQ ID NO: 1 with addition of one amino acid at the amino terminal and deletion of position 18 (RYRVRFLAKENVTQDAED) | 55.77 ± 5.06,* % | 20.18 ± 3.38,* % | 8.17 ± 1.07,*** % | 273 ± 12,**** | 13.73 ± 4.97,** % | 41.56 ± 6.68,* % | 244 ± 23,* | 14.22 ± 6.12,*** %
N21: SEQ ID NO: 1 with deletion of positions 1-5 and 15-18 and addition of one amino acid at the amino terminal (SLAKENVTQD) | 31.06 ± 4.94,** % | 19.95 ± 5.47,* % | 12.85 ± 3.12,*** % | 269 ± 28,**** | 10.43 ± 2.18,** % | 10.54 ± 9.03,*** % | 216 ± 12,*** | 15.00 ± 7.29,*** %
N22: SEQ ID NO: 1 with substitution A7R, deletion of three amino acids at the amino terminal and of positions 15-18 (RFLRKENVTQD) | 33.59 ± 5.62,** % | 16.94 ± 3.17,* % | 7.78 ± 3.07,*** % | 220 ± 65,**** | 8.79 ± 3.01,** % | 11.44 ± 8.52,*** % | 200 ± 18,*** | 18.61 ± 8.35,*** %
N23: SEQ ID NO: 1 with substitution A7R, deletion of position 11 and of positions 15-18 (YRVRFLRKENTQDAED) | 26.03 ± 4.21,*** % | 14.39 ± 2.33,** % | 13.08 ± 2.64,*** % | 196 ± 26,**** | 10.20 ± 2.86,** % | 14.16 ± 8.36,*** % | 200 ± 14,*** | 17.22 ± 7.12,*** %
N24: SEQ ID NO: 1 with substitution A7R, deletion of positions 1-2 and of position 18 (VRFLRKENVTQDAED) | 31.05 ± 3.60,** % | 20.97 ± 3.37,* % | 12.14 ± 2.49,*** % | 226 ± 18,**** | 9.43 ± 1.12,** % | 13.99 ± 7.57,*** % | 239 ± 24,* | 16.38 ± 6.48,*** %
